Reference: PMC12454493, “Insight on novel sulfamoylphenyl pyrazole derivatives as anticancer carbonic anhydrase inhibitors” (Molecular Diversity, 2024)

How the values were obtained:
Assay type in all cases: cell-based
CCRF-CEM = test: NCI-60 one-dose SRB screen (Leukemia); conditions: Homo sapiens, single dose 10 µM, 48 h, read-out: Growth inhibition percent (GI %)
A549/ATCC = test: NCI-60 one-dose SRB screen (Non-Small Cell Lung Cancer); conditions: Homo sapiens, single dose 10 µM, 48 h, read-out: Growth inhibition percent (GI %)
EKVX = test: as above; conditions: Homo sapiens, single dose 10 µM, 48 h, read-out: Growth inhibition percent (GI %)
HOP-62 = test: as above; conditions: Homo sapiens, single dose 10 µM, 48 h, read-out: Growth inhibition percent (GI %)
HOP-92 = test: as above; conditions: Homo sapiens, single dose 10 µM, 48 h, read-out: Growth inhibition percent (GI %)
NCI-H226 = test: as above; conditions: Homo sapiens, single dose 10 µM, 48 h, read-out: Growth inhibition percent (GI %)
NCI-H23 = test: as above; conditions: Homo sapiens, single dose 10 µM, 48 h, read-out: Growth inhibition percent (GI %)
NCI-H322M = test: as above; conditions: Homo sapiens, single dose 10 µM, 48 h, read-out: Growth inhibition percent (GI %)
NCI-H460 = test: as above; conditions: Homo sapiens, single dose 10 µM, 48 h, read-out: Growth inhibition percent (GI %)
NCI-H522 = test: as above; conditions: Homo sapiens, single dose 10 µM, 48 h, read-out: Growth inhibition percent (GI %)
COLO 205 = test: NCI-60 one-dose SRB screen (Colon Cancer); conditions: Homo sapiens, single dose 10 µM, 48 h, read-out: Growth inhibition percent (GI %)
HCC-2998 = test: NCI-60 one-dose SRB screen (Colon Cancer); conditions: Homo sapiens, single dose 10 µM, 48 h, read-out: Growth inhibition percent (GI %)
HCT-116 = test: NCI-60 one-dose SRB screen (Colon Cancer); conditions: Homo sapiens, single dose 10 µM, 48 h, read-out: Growth inhibition percent (GI %)
HCT-15 = test: NCI-60 one-dose SRB screen (Colon Cancer); conditions: Homo sapiens, single dose 10 µM, 48 h, read-out: Growth inhibition percent (GI %)
HT29 = test: NCI-60 one-dose SRB screen (Colon Cancer); conditions: Homo sapiens, HT-29, single dose 10 µM, 48 h, read-out: Growth inhibition percent (GI %)
KM12 = test: NCI-60 one-dose SRB screen (Colon Cancer); conditions: Homo sapiens, single dose 10 µM, 48 h, read-out: Growth inhibition percent (GI %)
SW-620 = test: NCI-60 one-dose SRB screen (Colon Cancer); conditions: Homo sapiens, single dose 10 µM, 48 h, read-out: Growth inhibition percent (GI %)
SF-268 = test: NCI-60 one-dose SRB screen (CNS Cancer); conditions: Homo sapiens, single dose 10 µM, 48 h, read-out: Growth inhibition percent (GI %)
SF-295 = test: NCI-60 one-dose SRB screen (CNS Cancer); conditions: Homo sapiens, single dose 10 µM, 48 h, read-out: Growth inhibition percent (GI %)
SF-539 = test: NCI-60 one-dose SRB screen (CNS Cancer); conditions: Homo sapiens, single dose 10 µM, 48 h, read-out: Growth inhibition percent (GI %)
SNB-19 = test: NCI-60 one-dose SRB screen (CNS Cancer); conditions: Homo sapiens, single dose 10 µM, 48 h, read-out: Growth inhibition percent (GI %)
SNB-75 = test: NCI-60 one-dose SRB screen (CNS Cancer); conditions: Homo sapiens, single dose 10 µM, 48 h, read-out: Growth inhibition percent (GI %)
U251 = test: NCI-60 one-dose SRB screen (CNS Cancer); conditions: Homo sapiens, U-251, single dose 10 µM, 48 h, read-out: Growth inhibition percent (GI %)
LOX IMVI = test: NCI-60 one-dose SRB screen (Melanoma); conditions: Homo sapiens, single dose 10 µM, 48 h, read-out: Growth inhibition percent (GI %)
M14 = test: NCI-60 one-dose SRB screen (Melanoma); conditions: Homo sapiens, single dose 10 µM, 48 h, read-out: Growth inhibition percent (GI %)
MALME-3M = test: NCI-60 one-dose SRB screen (Melanoma); conditions: Homo sapiens, single dose 10 µM, 48 h, read-out: Growth inhibition percent (GI %)
MDA-MB-435 = test: NCI-60 one-dose SRB screen (Melanoma); conditions: Homo sapiens, single dose 10 µM, 48 h, read-out: Growth inhibition percent (GI %)
SK-MEL-28 = test: NCI-60 one-dose SRB screen (Melanoma); conditions: Homo sapiens, single dose 10 µM, 48 h, read-out: Growth inhibition percent (GI %)
SK-MEL-2 = test: NCI-60 one-dose SRB screen (Melanoma); conditions: Homo sapiens, single dose 10 µM, 48 h, read-out: Growth inhibition percent (GI %)
SK-MEL-5 = test: NCI-60 one-dose SRB screen (Melanoma); conditions: Homo sapiens, single dose 10 µM, 48 h, read-out: Growth inhibition percent (GI %)
UACC-257 = test: NCI-60 one-dose SRB screen (Melanoma); conditions: Homo sapiens, single dose 10 µM, 48 h, read-out: Growth inhibition percent (GI %)
UACC-62 = test: NCI-60 one-dose SRB screen (Melanoma); conditions: Homo sapiens, single dose 10 µM, 48 h, read-out: Growth inhibition percent (GI %)
786-0 = test: NCI-60 one-dose SRB screen (Renal Cancer); conditions: Homo sapiens, single dose 10 µM, 48 h, read-out: Growth inhibition percent (GI %)
A498 = test: NCI-60 one-dose SRB screen (Renal Cancer); conditions: Homo sapiens, single dose 10 µM, 48 h, read-out: Growth inhibition percent (GI %)
ACHN = test: NCI-60 one-dose SRB screen (Renal Cancer); conditions: Homo sapiens, single dose 10 µM, 48 h, read-out: Growth inhibition percent (GI %)
CAKI-1 = test: NCI-60 one-dose SRB screen (Renal Cancer); conditions: Homo sapiens, single dose 10 µM, 48 h, read-out: Growth inhibition percent (GI %)
RXF 393 = test: NCI-60 one-dose SRB screen (Renal Cancer); conditions: Homo sapiens, single dose 10 µM, 48 h, read-out: Growth inhibition percent (GI %)
SN12C = test: NCI-60 one-dose SRB screen (Renal Cancer); conditions: Homo sapiens, single dose 10 µM, 48 h, read-out: Growth inhibition percent (GI %)
TK-10 = test: NCI-60 one-dose SRB screen (Renal Cancer); conditions: Homo sapiens, single dose 10 µM, 48 h, read-out: Growth inhibition percent (GI %)
UO-31 = test: NCI-60 one-dose SRB screen (Renal Cancer); conditions: Homo sapiens, single dose 10 µM, 48 h, read-out: Growth inhibition percent (GI %)
BT-549 = test: NCI-60 one-dose SRB screen (Breast Cancer); conditions: Homo sapiens, single dose 10 µM, 48 h, read-out: Growth inhibition percent (GI %)
HS 578T = test: NCI-60 one-dose SRB screen (Breast Cancer); conditions: Homo sapiens, single dose 10 µM, 48 h, read-out: Growth inhibition percent (GI %)
MCF-7 = test: NCI-60 one-dose SRB screen (Breast Cancer); conditions: Homo sapiens, MCF7, single dose 10 µM, 48 h, read-out: Growth inhibition percent (GI %)
MDA-MB-231/ATCC = test: NCI-60 one-dose SRB screen (Breast Cancer); conditions: Homo sapiens, single dose 10 µM, 48 h, read-out: Growth inhibition percent (GI %)
MDA-MB-468 = test: NCI-60 one-dose SRB screen (Breast Cancer); conditions: Homo sapiens, single dose 10 µM, 48 h, read-out: Growth inhibition percent (GI %)
T-47D = test: NCI-60 one-dose SRB screen (Breast Cancer); conditions: Homo sapiens, T47D, single dose 10 µM, 48 h, read-out: Growth inhibition percent (GI %)

`CS(=O)(=O)c1ccc(-c2nn(-c3ccc(S(N)(=O)=O)cc3)cc2C(=O)NNC(N)=S)cc1` [Compound 9e, 2-[3-(4-(Methylsulfonyl)phenyl)-1-(4-sulfamoylphenyl)-1H-pyrazole-4-carbonyl] hydrazine-1-carbothioamide] showed an inhibition at 10 µM (CCRF-CEM) of under 5%, an inhibition at 10 µM (A549/ATCC) of under 5% and an inhibition at 10 µM (EKVX) of under 5%. For the same compound, the inhibition at 10 µM (HOP-62) was under 5%, the inhibition at 10 µM (HOP-92) was under 5% and the inhibition at 10 µM (NCI-H226) was 6.39%. It also gave an inhibition at 10 µM (NCI-H23) of under 5%, an inhibition at 10 µM (NCI-H322M) of under 5% and an inhibition at 10 µM (NCI-H460) of under 5%. The inhibition at 10 µM (NCI-H522) was 12.3%, the inhibition at 10 µM (COLO 205) was under 5% and the inhibition at 10 µM (HCC-2998) was under 5%. It also gave an inhibition at 10 µM (HCT-116) of under 5%, an inhibition at 10 µM (HCT-15) of under 5% and an inhibition at 10 µM (HT29) of under 5%. The inhibition at 10 µM (KM12) was under 5%, the inhibition at 10 µM (SW-620) was under 5% and the inhibition at 10 µM (SF-268) was under 5%. The inhibition at 10 µM (SF-295) was under 5%, the inhibition at 10 µM (SF-539) was under 5% and the inhibition at 10 µM (SNB-19) was under 5%. It also gave an inhibition at 10 µM (SNB-75) of 15.9%, an inhibition at 10 µM (U251) of under 5% and an inhibition at 10 µM (LOX IMVI) of under 5%. It also gave an inhibition at 10 µM (M14) of under 5%, an inhibition at 10 µM (MALME-3M) of under 5% and an inhibition at 10 µM (MDA-MB-435) of under 5%. The inhibition at 10 µM (SK-MEL-28) was under 5%, the inhibition at 10 µM (SK-MEL-2) was under 5% and the inhibition at 10 µM (SK-MEL-5) was under 5%. It also gave an inhibition at 10 µM (UACC-257) of 7%, an inhibition at 10 µM (UACC-62) of 7.82% and an inhibition at 10 µM (786-0) of under 5%. The inhibition at 10 µM (A498) was under 5%, the inhibition at 10 µM (ACHN) was under 5% and the inhibition at 10 µM (CAKI-1) was 9.93%. The inhibition at 10 µM (RXF 393) was under 5%, the inhibition at 10 µM (SN12C) was under 5% and the inhibition at 10 µM (TK-10) was under 5%. For the same compound, the inhibition at 10 µM (UO-31) was 5.48%, the inhibition at 10 µM (BT-549) was under 5% and the inhibition at 10 µM (HS 578T) was 7.37%. It also gave an inhibition at 10 µM (MCF-7) of under 5%, an inhibition at 10 µM (MDA-MB-231/ATCC) of under 5% and an inhibition at 10 µM (MDA-MB-468) of 7.21%. The inhibition at 10 µM (T-47D) was under 5%.
